Laboratory results taken from patent US8759535B2, “Substituted fused imidazole derivatives, pharmaceutical compositions, and methods of use thereof” (High Point Pharmaceuticals, LLC, priority 2010, dated 2014).
Structures can show the parent of a compound that is named as a salt.

What follows are compounds tested on HMOX1 (assay: HMOX1 Protein Assay (immunostaining of HO-1 in NHLF cells, GE InCell 1000)). Details: Homo sapiens, fold change above DMSO treated cells, 3 μM compound (asterisk), 16 h.
Assay type: cell-based
Description: Cell Culture. Normal Human Fibroblast (NHLF), were obtained from Lonza. Cultures of cells were maintained in Fibroblast Growth Medium (FGM-2) medium supplemented with 2% fetal bovine serum (FBS), Fibroblast Growth Factor (hFGF-B) 0.5 mL, Insulin 0.5 mL, gentamicin/amphotericin-B 0.5 mL at 37° C. in a humidified atmosphere of 5% CO2. Cells were grown to 80% confluence before treating.
HMOX1 Protein Assay. NHLF cells were grown to 80% confluency and harvested by washing once with HEPES and then trypsinized. Equal numbers (2×10^3 cells per well) of NHLF cells were plated in 384 well optilux tissue culture (BD) plates. Cells were incubated overnight in FGM-2 medium prior to exposure to compound. Cells were treated with either vehicle (DMSO) or compound (dissolved in vehicle) for 16 h. Cells were washed 2× with 1×PBS and fixed with 4% Paraformaldyhyde for 15 min. The fixed cells were then permeabalized with 0.1% Triton X-100 and blocked with 5% BSA in 1×PBS 0.05% Tween-20 for 15 min. HO-1 antibody (abcam) was used for immunostaining at 1:300 dilution in 1% BSA in 1×PBS for 1 hour. Cells were washed 2× with 1×PBS and secondary antibody goat anti-mouse Alexa 488 1:400 dilution (Invitrogen); Hoechst 1:2000 (Invitrogen) in 1% BSA in 1×PBS for 1 hour. Plate was washed 5× with 1×PBS and read at Hoechst Ex.360 […]; Alexa 488 Ex.480 Em. 535 using GE InCell 1000. Results analyzed using GE InCell Analyzer software. Heme oxygenase data represents the fold change above DMSO treated cells.
In general, the fold induction data are reported for 5 μM concentration (i.e., μ-moles of compound to total volume, where the solvent is about 99.2% media and 0.8% DMSO). In some instances, the reported data are for 3 μM concentration, which are indicated by an asterisk (*).

Going from `CC(C)c1ccc2nc(Nc3nc4cc(C(=O)NCC(=O)N(C)C)ccc4n3C)sc2c1` [Example 365, 2-(6-Isopropyl-benzothiazol-2-ylamino)-1-methyl-1H-benzoimidazole-5-carboxylic acid dimethylcarbamoylmethyl-amide] to `C[C@@H](O)CNC(=O)c1ccc2c(c1)nc(Nc1nc3ccc(C(F)(F)F)cc3s1)n2C` [Example 205, 1-Methyl-2-(6-trifluoromethyl-benzothiazol-2-ylamino)-1H-benzoimidazole-5-carboxylic acid ((R)-2-hydroxy-propyl)-amide], the fold induction at 3 µM rises from 20.1 to 33.1.

First: Cn1c(Nc2nc3ccc(Cl)cc3s2)nc2cc(C(=O)NCC(=O)N3CC[C@H](O)C3)ccc21 [Example 401, 2-(6-Chloro-benzothiazol-2-ylamino)-1-methyl-1H-benzoimidazole-5-carboxylic acid [2-((S)-3-hydroxy-pyrrolidin-1-yl)-2-oxo-ethyl]-amide]
Second: Cn1c(Nc2nc3ccc(Cl)cc3s2)nc2cc(C(=O)NN3CCOCC3)ccc21 [Example 321, 2-(6-Chloro-benzothiazol-2-ylamino)-1-methyl-1H-benzoimidazole-5-carboxylic acid morpholin-4-ylamide]
The fold induction at 3 µM of the first is higher: 27 for the first, 15.3 for the second.

Same assay, conditions: Homo sapiens, fold change above DMSO treated cells, 5 μM compound, 16 h

First: CN1CCC[C@@H](NC(=O)CNC(=O)c2ccc3c(c2)nc(Nc2nc4ccc(Cl)cc4s2)n3C)C1 [Example 388, 2-(6-Chloro-benzothiazol-2-ylamino)-1-methyl-1H-benzoimidazole-5-carboxylic acid [((R)-1-methyl-piperidin-3-ylcarbamoyl)-methyl]-amide]
Second: Cn1c(Nc2nc3ccc(Cl)cc3s2)nc2cc(C(=O)NCC(=O)N[C@@H]3CCCNC3)ccc21 [Example 387, 2-(6-Chloro-benzothiazol-2-ylamino)-1-methyl-1H-benzoimidazole-5-carboxylic acid ((R)-piperidin-3-ylcarbamoylmethyl)-amide hydrochloride]
The fold induction at 5 µM of the first is higher: 22 for the first, 19.9 for the second.

First: Cn1c(Nc2nc3ccc(OC(F)(F)F)cc3s2)nc2cc(C(=O)N3CCC(CCCO)CC3)ccc21 [Example 307, [4-(3-Hydroxy-propyl)-piperidin-1-yl]-[1-methyl-2-(6-trifluoromethoxy-benzothiazol-2-ylamino)-1H benzoimidazol-5-yl]-methanone]
Second: Cn1c(Nc2nc3ccc(OC(F)(F)F)cc3s2)nc2cc(C(=O)NC3(C(=O)O)CC3)ccc21 [Example 147, 1-{[1-Methyl-2-(6-trifluoromethoxy-benzothiazol-2-ylamino)-1H-benzimidazole-5-carbonyl]-amino}-cyclopropanecarboxylic acid]
The fold induction at 5 µM of the first is higher: 31.5 for the first, 1.8 for the second.

Going from `C[C@H](O)C(=O)NCCNC(=O)c1ccc2c(c1)nc(Nc1nc3ccc(OC(F)(F)F)cc3s1)n2C` [Example 326, 1-Methyl-2-(6-trifluoromethoxy-benzothiazol-2-ylamino)-1H-benzoimidazole-5-carboxylic acid [2-((S)-2-hydroxy-propionylamino)-ethyl]-amide] to `COC(=O)CCNC(=O)c1ccc2c(c1)nc(Nc1nc3ccc(OC(F)(F)F)cc3s1)n2C` [Example 97, 3-{[1-Methyl-2-(6-trifluoromethoxy-benzothiazol-2-ylamino)-1H-benzoimidazole-5-carbonyl]-amino}-propionic acid methyl ester], the fold induction at 5 µM falls from 34.3 to 19.2.

Going from `Cn1c(Nc2nc3ccc(Cl)cc3s2)nc2cc(C(=O)NCC(=O)N3CCSCC3)ccc21` [Example 423, 2-(6-Chloro-benzothiazol-2-ylamino)-1-methyl-1H-benzoimidazole-5-carboxylic acid (2-oxo-2-thiomorpholin-4-yl-ethyl)-amide] to `CN(C)C1CCN(C(=O)CNC(=O)c2ccc3c(c2)nc(Nc2nc4ccc(Cl)cc4s2)n3C)CC1` [Example 456, 2-(6-Chloro-benzothiazol-2-ylamino)-1-methyl-1H-benzoimidazole-5-carboxylic acid [2-(4-dimethylamino-piperidin-1-yl)-2-oxo-ethyl]-amide], the fold induction at 5 µM rises from 30.2 to 67.3.

Going from `CN(C)C(=O)[C@H](CO)NC(=O)c1ccc2c(c1)nc(Nc1nc3ccc(OC(F)(F)F)cc3s1)n2C` [Example 368, 1-Methyl-2-(6-trifluoromethoxy-benzothiazol-2-ylamino)-1H-benzoimidazole-5-carboxylic acid ((S)-1-dimethylcarbamoyl-2-hydroxy-ethyl)-amide] to `COCC(C)NC(=O)c1ccc2c(c1)nc(Nc1nc3ccc(OC(F)(F)F)cc3s1)n2C` (stereo not shown) [Example 20, 1-Methyl-2-(6-trifluoromethoxy-benzothiazol-2-ylamino)-1H-benzoimidazole-5-carboxylic acid (2-methoxy-1-methyl-ethyl)-amide], the fold induction at 5 µM falls from 48 to 18.6.

First: CCOCCNC(=O)c1cc2nc(Nc3nc4ccc(OC(F)(F)F)cc4s3)n(C)c2cc1F [Example 57, 6-Fluoro-1-methyl-2-(6-trifluoromethoxy-benzothiazol-2-ylamino)-1H-benzoimidazole-5-carboxylic acid (2-ethoxy-ethyl)-amide]
Second: Cn1c(Nc2nc3ccc(OC(F)(F)F)cc3s2)nc2ccc(C(=O)NCCOCCO)cc21 [Example 286, 3-Methyl-2-(6-trifluoromethoxy-benzothiazol-2-ylamino)-3H-benzoimidazole-5-carboxylic acid [2-(2-hydroxy-ethoxy)-ethyl]-amide]
The fold induction at 5 µM of the first is lower: 32 for the first, 61.1 for the second.

Compared with `CCN(CC)CCCCNC(=O)c1ccc2c(c1)nc(Nc1nc3ccc(OC(F)(F)F)cc3s1)n2C` [Example 360, 1-Methyl-2-(6-trifluoromethoxy-benzothiazol-2-ylamino)-1H-benzoimidazole-5-carboxylic acid (4-diethylamino-butyl)-amide], `CN(C)CCOCCNC(=O)c1ccc2c(c1)nc(Nc1nc3ccc(OC(F)(F)F)cc3s1)n2C` [Example 273, 1-Methyl-2-(6-trifluoromethoxy-benzothiazol-2-ylamino)-1H-benzoimidazole-5-carboxylic acid [2-(2-dimethylamino-ethoxy)-ethyl]-amide] is lower in fold induction at 5 µM: 34.3 for the first, 25.3 for the second.

Compared with `COCCNC(=O)c1ccc2c(c1)nc(Nc1nc3ccc(F)cc3s1)n2C` [Example 125, 2-(6-Fluoro-benzothiazol-2-ylamino)-1-methyl-1H-benzimidazole-5-carboxylic acid (2-methoxy-ethyl)-amide], `COCCOCCNC(=O)c1ccc2c(c1)nc(Nc1nc3ccc(Cl)cc3s1)n2C` [Example 261, 2-(6-Chloro-benzothiazol-2-ylamino)-1-methyl-1H-benzoimidazole-5-carboxylic acid [2-(2-methoxy-ethoxy)-ethyl]-amide] is higher in fold induction at 5 µM: 25.9 for the first, 35.7 for the second.

First: CCOCCNC(=O)c1ccc2c(c1)nc(Nc1nc3cc(F)c(F)cc3s1)n2C [Example 87, 2-(5,6-Difluoro-benzothiazol-2-ylamino)-1-methyl-1H-benzoimidazole-5-carboxylic acid (2-ethoxy-ethyl)-amide]
Second: COC(=O)c1ccc2c(c1)nc(Nc1nc3cc(F)c(F)cc3s1)n2C [Example 33, 2-(5,6-Difluoro-benzothiazol-2-ylamino)-1-methyl-1H-benzoimidazole-5-carboxylic acid methyl ester]
The fold induction at 5 µM of the first is higher: 12.1 for the first, 11.7 for the second.
